# Assay: HILIC, Waters ACQUITY UPLC BEH Amide, 100 × 2.1 mm, 1.7 µm; A: water + 0.125% formic acid + 10 mM ammonium formate; B: 5% water + 95% acetonitrile + 0.125% formic acid + 10 mM ammonium formate; gradient (min/%B) 0/100 2/100 7.7/70 9.5/40 10.25/30 12.75/100 17/100
# Conditions: stereoisomer not certain
row,SMILES,LC retention time
1,CSCCC(NC(=O)CCC(N)C(=O)O)C(=O)O (stereo not drawn) [gamma-Glutamylmethionine],8.55 min
2,CN(C)c1ccc(N=Nc2ccccc2)cc1 [p-(Dimethylamino)azobenzene [methyl yellow]],0.93 min
3,O=C(O)C=Cc1ccc(O)cc1 [p-Coumaric acid],1.38 min
4,OCC1OC(Oc2cc(O)cc(C=Cc3ccc(O)cc3)c2)C(O)C(O)C1O (stereo not drawn) [trans-Piceid],4.64 min

# Continued, values first:
row,LC retention time,SMILES
1,8.1 min,CC(C)CC(NC(=O)CCC(N)C(=O)O)C(=O)O (stereo not drawn) [gamma-Glutamylleucine]
2,8.52 min,NC(CCC(=O)NC(Cc1ccc(O)cc1)C(=O)O)C(=O)O (stereo not drawn) [gamma-Glutamyltyrosine]
3,9.74 min,CC(OP(=O)(O)O)C(N)C(=O)O (stereo not drawn) [o-Phosphothreonine]
4,2.02 min,CN1C(=O)C(O)CC1c1cccnc1 (stereo not drawn) [trans-3'-Hydroxycotinine]
